Test results from patent publication US9422261B2, “Heterocyclic resorcinol derivatives, preparation of same and cosmetic uses thereof” (PIERRE FABRE DERMO-COSMETIQUE, priority 2011, dated 2016).

Tests used:
[1] = Antioxidant ability using chemiluminescence (Photochem, Analytik Jena); details: for μg of sample for 1 μg of Trolox: trapping of superoxide anions, chemiluminescence
Source text: This test is used to determine the antioxidant ability of the molecules. It is a method that generates free radicals by a photochemical signal. The intensity of the oxidation is 1000 times greater than that obtained under normal conditions.
Detection is by chemiluminescence. It enables the evaluation of water-soluble and lipid-soluble antioxidant molecules or extracts.
The results are expressed as equivalents of vitamin C or Trolox (6-hydroxy-2,5,7,8-tetramethylchroman-2-carboxylic acid), respectively. The sensitivity is on the order of the nanomole.
The antioxidant activity studied in this test represents the ability to specifically trap superoxide anions by chemiluminescence.
The quantified results are expressed in Trolox equivalents (standard), or “μg of product for 1 μg of Trolox.” This means that a quantity x of sample is needed to obtain activity equivalent to the activity detected for 1 μg of the standard. This represents antioxidant ability relative to a reference, which frees us from concern about the concentration tested.
The superoxide radical (O2°^−) is generated by a photochemical reaction: L+hv(UV)+O2→L*O2→L°^++O2°^− L*: luminol in the excited state L°^+: luminol radical
Some of the superoxide anions are quenched by the antioxidants. The remaining free radicals are quantified by chemiluminescence. L°^++O2°^−→N2+AP*^2−→AP^2−+hv (luminescence) AP*^2−: aminophthalate in the excited state

[2] = molecular target: tyrosinase monophenol monooxygenase (MPMO) (Agaricus bisporus, UniProt C7FF04); assay: biochemical
tyrosinase monophenol monooxygenase (MPMO), sequence (C7FF04 1-392 limits assumed): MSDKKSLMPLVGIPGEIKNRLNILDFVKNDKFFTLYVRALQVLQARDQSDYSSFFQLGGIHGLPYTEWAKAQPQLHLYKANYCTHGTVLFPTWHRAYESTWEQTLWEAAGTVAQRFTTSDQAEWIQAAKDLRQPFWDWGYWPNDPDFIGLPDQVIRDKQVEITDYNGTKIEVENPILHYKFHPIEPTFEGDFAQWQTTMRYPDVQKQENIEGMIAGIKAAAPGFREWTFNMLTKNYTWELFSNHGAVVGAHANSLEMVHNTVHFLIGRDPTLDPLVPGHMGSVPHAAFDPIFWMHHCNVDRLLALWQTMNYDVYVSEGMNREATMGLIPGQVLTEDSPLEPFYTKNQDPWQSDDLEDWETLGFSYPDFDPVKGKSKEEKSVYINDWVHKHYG
Protocol: (§1) The substrate, L-tyrosine, is transformed by the monophenol monooxygenase functional group into L-DOPA, itself transformed by the tyrosinase's polyphenol oxidase functional group into dopaquinone. The latter will auto-oxidize into dopachrome, which is measured by spectrophotometry at 490 nm.
(§2) More precisely, it is global tyrosinase activity (MPMOg) that is measured since ultimately it is dopachrome that is assayed. Thus, the products tested in terms of MPMOg (measurement of activity on PPO and MPMO) can accumulate the inhibition of the 2 functional groups; • inhibiting only the MPMO functional group in the strict sense (transformation of tyrosine into DOPA) in addition to the PPO test, • inhibiting only PPO.

[3] = system: B16-F10 cells; assay: Assay of melanin in B16-F10 cells stimulated with α-MSH; format: cell-based, murine; details: 72 hours, 0.1 μM α-MSH; for IC50: Mus musculus, B16-F10, read-out: Melanin assay, in strains B16F10, IC50; for Melanin assay, in strains B16F10 (%): negative value indicates inhibition
Protocol: This test measures melanin synthesis using a colorimetric assay on a murine melanoma cell line: B16-F10. […] B16-F10 cells are seeded in 96-well plates in DMEM medium supplemented with fetal calf serum (FCS) and then incubated for 24 hours at 37° C., 5% CO2. […] Each concentration of active agent is tested at least in triplicate. […] The total proteins are assayed in the lysate and the results are expressed in mg melanin/mg proteins: The percentage of activity is calculated as follows: A negative value indicates inhibition, whereas a positive value indicates induction of melanin synthesis. Biological Material: • B16-F10 cell line between […] (murine melanocytes) (ATCC, CRL-6475)

[4] = molecular target: tyrosinase polyphenol oxidase (PPO) (Agaricus bisporus, UniProt C7FF04); assay: Tyrosinase inhibition test, polyphenol oxidase (PPO) function, reference molecules; format: biochemical, mushroom; details: at 25 μM
tyrosinase polyphenol oxidase (PPO), sequence (C7FF04 1-392 limits assumed): as above
Protocol: as §1, §2

[5] = Solubility in aqueous phase; format: physicochemical; details: aqueous phase / aqueous acidic solution

In the case of `O=C(O)CCCC[C@@H]1CCSS1` (racemic) [Lipoic acid, reference compound], the “μg of sample for 1 μg of Trolox (scale used to interpret the results)” value ([1]; reference products of the interpretation scale) is reported as “NEGATIVE”.
Compound `OC[C@H]1O[C@@H](Oc2ccc(O)cc2)[C@H](O)[C@@H](O)[C@@H]1O` [Arbutin, reference compound] has an inhibition at 88 µM ([2]; read-out: % inhibition (MPMO)) of 57% and an IC50 [3] of 158 µM.
For `N[C@@H](CCC(=O)N[C@@H](CS)C(=O)NCC(=O)O)C(=O)O` [Reduced glutathione], the IC50 ([2]; read-out: IC50 (MPMO), reference molecules for the test, MPMO) was 1 to 2 µM and the “% inhibition (PPO)” value [4] was 55%.
Work on `O=c1cc(CO)occ1O` [Kojic acid, reference compound] yielded an IC50 [3] of 2400 µM.
For `CC(c1ccccc1)c1ccc(O)cc1O` (stereo not drawn) [4-(1-phenylethyl)benzene-1,3-diol, reference compound], the “Solubility in aqueous phase” value [5] was “insoluble in aqueous phase”.
For `CC(c1ccsc1)c1ccc(O)cc1O` (stereo not drawn) [Compound 4, 4-(1-(thiophene-3-yl)ethyl)benzene-1,3-diol], the “Melanin assay, in strains B16F10 (%)” value ([3]; at 20 μM) was −52% at 20 μM and the “μg of sample for 1 μg of Trolox” value [1] was 15.4 μg of sample for 1 μg of Trolox.
In the case of `CC(c1ccccn1)c1ccc(O)cc1O` (stereo not drawn) [Compound 2, 4-(1-(pyridin-2-yl)ethyl)benzene-1,3-diol], the “Melanin assay, in strains B16F10 (%)” value ([3]; at 20 μM) is reported as −26% at 20 μM and the “μg of sample for 1 μg of Trolox” value [1] is reported as 10.4 μg of sample for 1 μg of Trolox.
For `CCCC(c1cccs1)c1ccc(O)cc1O` (stereo not drawn) [Compound 31, 4-(1-(thiophene-2-yl)butyl)benzene-1,3-diol], the “Melanin assay, in strains B16F10 (%)” value ([3]; at 10 μM) was −50% at 10 μM.
For `CC(C)CC(c1cccs1)c1ccc(O)cc1O` (stereo not drawn) [Compound 28, 4-(3-methyl-1-(thiophene-2-yl)butyl)benzene-1,3-diol], the melting point was 89.9 °C and the “Melanin assay, in strains B16F10 (%)” value ([3]; at 10 μM) was −52% at 10 μM.
With `CC(c1cccnc1)c1ccc(O)cc1O` (stereo not drawn) [Compound 3, 4-(1-(pyridin-3-yl)ethyl)benzene-1,3-diol] the “Solubility in aqueous phase” value [5] was “dissolve the active ingredient in aqueous acidic solution”, the “Melanin assay, in strains B16F10 (%)” value ([3]; at 20 μM) was −52% at 20 μM and the “μg of sample for 1 μg of Trolox” value [1] was 8.7 μg of sample for 1 μg of Trolox.
In the case of `CC(c1cccs1)c1ccc(O)cc1O` (stereo not drawn) [Compound 1, 4-(1-(thiophene-2-yl)ethyl)benzene-1,3-diol], the “Melanin assay, in strains B16F10 (%)” value ([3]; at 20 μM) is reported as −50% at 20 μM and the “μg of sample for 1 μg of Trolox” value [1] is reported as 13.7 μg of sample for 1 μg of Trolox.
In the case of `CC(c1nccs1)c1ccc(O)cc1O` (stereo not drawn) [Compound 5, 4-(1-(thiazol-2-yl)ethyl)benzene-1,3-diol], the “Melanin assay, in strains B16F10 (%)” value ([3]; at 20 μM) is reported as −33% at 20 μM and the “μg of sample for 1 μg of Trolox” value [1] is reported as 11.7 μg of sample for 1 μg of Trolox.
